Experimental data reported in the NIST ThermoML archive (doi:10.1016/j.jct.2018.03.007).

Legend:
[1] = 100 kPa, Liquid; for speed of sound: Linear variable-path acoustic interferometer; for mass density: Vibrating tube method
[2] = xn = mol fraction of the nth substance listed; conditions: 100 kPa, Liquid, x2 = 0; for speed of sound: Linear variable-path acoustic interferometer; for mass density: Vibrating tube method

CCn1cc[n+](C)c1.O=S(=O)([O-])O [1-ethyl-3-methylimidazolium hydrogen sulfate]
[1], Frequency=2 MHz
Conditions	speed of sound [m/s]
298.15 K	1982.8
303.15 K	1962.9
308.15 K	1943.1
313.15 K	1923.2

[1]
Conditions	mass density [kg/m3]
298.15 K	1365.75
303.15 K	1362.62
308.15 K	1359.53
313.15 K	1356.41

C[S+](C)[O-] [dimethyl sulfoxide]
[1], Frequency=2 MHz
Conditions	speed of sound [m/s]
298.15 K	1485
303.15 K	1468.3
308.15 K	1451.1
313.15 K	1434.2

[1]
Conditions	mass density [kg/m3]
298.15 K	1095.33
303.15 K	1090.32
308.15 K	1085.31
313.15 K	1080.29

C[S+](C)[O-] [dimethyl sulfoxide] + CCn1cc[n+](C)c1.O=S(=O)([O-])O
[2], Frequency=2 MHz
Conditions	speed of sound [m/s]
298.15 K	1485
303.15 K	1468.3
308.15 K	1451.1
313.15 K	1434.2

[2]
Conditions	mass density [kg/m3]
298.15 K	1095.33
303.15 K	1090.32
308.15 K	1085.31
313.15 K	1080.29

CCO [ethanol]
[1], Frequency=3 MHz
Conditions	speed of sound [m/s]
298.15 K	1142.7
303.15 K	1125.3
308.15 K	1108.8
313.15 K	1091.5

[1]
Conditions	mass density [kg/m3]
298.15 K	785.26
303.15 K	780.98
308.15 K	776.66
313.15 K	772.28

CCO [ethanol] + CCn1cc[n+](C)c1.O=S(=O)([O-])O
[2], Frequency=3 MHz
Conditions	speed of sound [m/s]
298.15 K	1142.7
303.15 K	1125.3
308.15 K	1108.8
313.15 K	1091.5

[2]
Conditions	mass density [kg/m3]
298.15 K	785.26
303.15 K	780.98
308.15 K	776.66
313.15 K	772.28

CCCO [propan-1-ol]
[1], Frequency=2 MHz
Conditions	speed of sound [m/s]
298.15 K	1206.1
303.15 K	1189.1
308.15 K	1172.2
313.15 K	1155.4

[1]
Conditions	mass density [kg/m3]
298.15 K	799.96
303.15 K	795.92
308.15 K	791.82
313.15 K	787.73

CCCO [propan-1-ol] + CCn1cc[n+](C)c1.O=S(=O)([O-])O
[2], Frequency=2 MHz
Conditions	speed of sound [m/s]
298.15 K	1206.1
303.15 K	1189.1
308.15 K	1172.2
313.15 K	1155.4

[2]
Conditions	mass density [kg/m3]
298.15 K	799.96
303.15 K	795.92
308.15 K	791.82
313.15 K	787.73
